Test results as given in the supplement of paper PMC10307832.

How the values were obtained:
Assay in all cases: relative viability (nuclei count vs DMSO), 5 days (fraction); higher = more cells survive
Bosutinib = compound: COc1cc(Nc2c(C#N)cnc3cc(OCCCN4CCN(C)CC4)c(OC)cc23)c(Cl)cc1Cl [Bosutinib]
Procedure, shortened: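 MetaXpress counted nuclei in 4× images of lung cancer cell lines that had been fixed, permeabilised and Hoechst-stained in one step. Before that, cells in 1536-well plates were kept overnight at 37 °C, pinned with five √10-spaced library-drug doses on vehicle-anchored plates, and cultured 5 days without medium change. Viability takes treated-well nuclei over vehicle-well nuclei and uses the median across plates. Plates were accepted only at control CV below 25% and at least one doubling.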

Bosutinib + Olaparib = compound: COc1cc(Nc2c(C#N)cnc3cc(OCCCN4CCN(C)CC4)c(OC)cc23)c(Cl)cc1Cl [Bosutinib] + O=C(c1cc(Cc2n[nH]c(=O)c3ccccc23)ccc1F)N1CCN(C(=O)C2CC2)CC1 [Olaparib] (partner 8 µM)
Procedure, shortened: (§1)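 Dosing by pin tool came one day after lung cancer cell lines were seeded in 1536-well plates, using either one drug or a fixed anchor-drug dose plus five library-drug doses (not always all listed) in √10 steps. After 5 days, nuclei were counted on 4× images. Relative viability is treated-well nuclei count divided by vehicle-well nuclei count, and values are medians of duplicate plates.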

Bosutinib + Crizotinib = compound: COc1cc(Nc2c(C#N)cnc3cc(OCCCN4CCN(C)CC4)c(OC)cc23)c(Cl)cc1Cl [Bosutinib] + C[C@@H](Oc1cc(-c2cnn(C3CCNCC3)c2)cnc1N)c1c(Cl)ccc(F)c1Cl [Crizotinib] (partner 1 µM)
Procedure, shortened: as §1

Bosutinib + Alpelisib = compound: COc1cc(Nc2c(C#N)cnc3cc(OCCCN4CCN(C)CC4)c(OC)cc23)c(Cl)cc1Cl [Bosutinib] + Cc1nc(NC(=O)N2CCC[C@H]2C(N)=O)sc1-c1ccnc(C(C)(C)C(F)(F)F)c1 [Alpelisib] (partner 2 µM)
Procedure, shortened: as §1

Bosutinib + Dasatinib = compound: COc1cc(Nc2c(C#N)cnc3cc(OCCCN4CCN(C)CC4)c(OC)cc23)c(Cl)cc1Cl [Bosutinib] + Cc1nc(Nc2ncc(C(=O)Nc3c(C)cccc3Cl)s2)cc(N2CCN(CCO)CC2)n1 [Dasatinib] (partner 0.075 µM)
Procedure, shortened: as §1

Cell Line	relative viability (Bosutinib; 0.01 µM)	relative viability (Bosutinib; 0.03162 µM)	relative viability (Bosutinib; 0.1 µM)	relative viability (Bosutinib; 1 µM)	relative viability (Bosutinib + Olaparib; first compound 0.01 µM)	relative viability (Bosutinib + Olaparib; first compound 0.03162 µM)	relative viability (Bosutinib + Olaparib; first compound 0.1 µM)	relative viability (Bosutinib + Olaparib; first compound 1 µM)	relative viability (Bosutinib + Crizotinib; first compound 0.01 µM)	relative viability (Bosutinib + Crizotinib; first compound 0.03162 µM)	relative viability (Bosutinib + Crizotinib; first compound 0.1 µM)	relative viability (Bosutinib + Crizotinib; first compound 1 µM)	relative viability (Bosutinib + Alpelisib; first compound 0.01 µM)	relative viability (Bosutinib + Alpelisib; first compound 0.03162 µM)	relative viability (Bosutinib + Alpelisib; first compound 0.1 µM)	relative viability (Bosutinib + Alpelisib; first compound 1 µM)	relative viability (Bosutinib + Dasatinib; first compound 0.01 µM)	relative viability (Bosutinib + Dasatinib; first compound 0.03162 µM)	relative viability (Bosutinib + Dasatinib; first compound 0.1 µM)	relative viability (Bosutinib + Dasatinib; first compound 1 µM)
NCI-H1437	1.03	0.974	1.02	0.912	0.609	0.635	0.604	0.545	0.858	0.922	0.898	0.82	0.939	0.954	1.04	0.862	0.392	0.384	0.4	0.338
NCI-H1651	0.997	0.966	1.03	0.988	0.184	0.189	0.184	0.201	0.783	0.89	0.888	0.773	0.928	0.961	0.854	0.734	0.488	0.452	0.433	0.482
NCI-H1666	0.988	1.04	0.924	1.02	0.713	0.701	0.756	0.794	1.2	0.987	0.916	0.912	0.982	0.947	1.07	0.865	0.75	0.834	0.814	0.808
NCI-H1734	1.06	1.01	0.965	0.892	0.629	0.62	0.584	0.488	0.737	0.656	0.658	0.537	0.642	0.632	0.748	0.59	0.523	0.508	0.512	0.46
NCI-H1755	1.01	1.09	1.03	0.951	0.874	0.998	0.861	0.885	0.804	0.953	0.903	0.688	0.916	0.961	0.998	0.739	0.427	0.476	0.438	0.433
NCI-H1792	0.822	1.08	0.993	0.84	0.525	0.312	0.548	0.273	0.984	0.978	0.981	1	0.774	0.677	0.757	0.505	0.805	0.796	0.875	0.781
NCI-H1915	0.989	1.09	1.1	1.01	0.259	0.256	0.258	0.26	0.932	0.89	0.98	0.956	1.03	1.07	1.1	1.06	0.323	0.323	0.33	0.297
NCI-H1944	0.965	0.92	0.913	0.888	0.411	0.384	0.417	0.433	1.16	1.07	1.09	0.946	0.849	0.826	0.826	0.614	0.216	0.2	0.209	0.208
NCI-H1975	0.992	0.958	0.966	0.81	0.71	0.784	0.794	0.56	0.926	0.965	1.01	0.849	0.615	0.688	0.67	0.433	0.343	0.395	0.364	0.374
NCI-H1993	0.977	0.9	0.987	0.936	0.988	0.996	1.04	1.01	0.816	0.875	0.686	0.602	0.635	0.69	0.641	0.669	0.492	0.63	0.589	0.622
NCI-H2009	1.07	1.05	1.06	0.865	0.708	0.709	0.696	0.575	1.05	1.07	1.03	0.66	1.2	1.15	1.1	0.767	0.41	0.362	0.416	0.344
NCI-H2023	1.02	0.943	0.948	0.852	0.493	0.427	0.461	0.423	0.538	0.613	0.511	0.366	0.581	0.655	0.538	0.426	0.683	0.599	0.65	0.583
NCI-H2085	0.969	0.938	0.919	0.928	0.717	0.72	0.709	0.89	0.799	0.685	0.826	0.874	0.978	0.976	0.903	0.988	0.264	0.219	0.329	0.398
